One test has as its target 5E5 (anti-MUC1) antibody. Description: Antigen-antibody binding studies by surface plasmon resonance (SPR). As to conditions: for Kd: SPR, 5E5 immobilised on CM5 chip, 20° C. and 7.5 pH. More on the design: species or system mouse. How it is done: Surface plasmon resonance (SPR) experiments were performed with a Biacore X-100 apparatus (Biacore, GE) in HBS-EP buffer solution at 7.5 pH (10 mM Hepes, 150 mM NaCl, 3 mM EDTA, with 2% DMSO and 0.05% Tween X100) at […]. This is the running buffer. The 5E5 antibody (from Abcam) was immobilised on a CM5 sensor chip (Biacore, GE) following the standard amine coupling method.^30 Briefly, the carboxymethyl dextran surface of flow cell 2 was activated by a 7 min injection of a 1:1 ratio of a 0.4 M aqueous solution of 1-ethyl-3-(3-dimethylaminopropyl) carbodiimide (EDC) and 0.1 M sulfo-N-hydroxysuccinimide. As such, the antibody was bound to the surface using various dilutions in 10 mM sodium acetate, 4.0. pH during a 7 min injection. […] The flow cell 1 was used as a reference and treated as the flow cell 2 (amine coupling method) without protein. Before use, 50 mM stock solutions of peptide ligand were diluted to the final concentration in the running buffer. Therefore, a series of different compounds were injected into the sensor chip at a flow rate of 30 μl/min for a period of 1 min followed by a dissociation period of 1 min. No regeneration was required. FIGS. 2A and 2B show the response-concentration curves obtained for the binding of glycopeptide 21 and 24, respectively, towards the 5E5 (anti-MUC1) antibody at 20° C. in SPR experiments.
The sensogram data were obtained in duplicate and processed with the Biae Evaluation X100 software (Biacore, GE). Experimental data from the affinity measurements were fitted to a specific two-site binding model using Prism software.
In general terms: SPR reads the build-up and loss of mass on a sensor chip optically.

Test [1] concerns the target Glycopeptide 24 (…(GalNCOEt)APPA). Description: SPR, ratio of the KD values of glycopeptides 21 and 24 for 5E5.
The target is the same in test [2]. Description: SPR (Biacore X-100), 5E5 immobilised on CM5 chip, glycopeptide as analyte, steady-state fit.
Test [3] addresses Glycopeptide 21 (…(GalNAc)APPA). The test is described as above.

What is called Kd is a measure of binding affinity in units of concentration. Low readings indicate tighter binding, high ones weaker binding. On 5E5 (anti-MUC1) antibody, “GGGGPAPGST(GalNAc)APPA [Glycopeptide 21, reference compound]” registered a Kd of 540 nM.

“GGGGPAPGST(GalNCOEt)APPA [Glycopeptide 24]” gave a Kd on 5E5 (anti-MUC1) antibody of 83 nM. The “affinity relative to the natural glycopeptide (21)” value in the test with 5E5 (anti-MUC1) antibody (anti-MUC1 antibody 5E5, SPR) is 6.5 times.

Consider mouse monoclonal anti-MUC1 5E5 antibody, for which, in test [1], the fold higher affinity than the natural peptide (21) worked out at 6.5 times. For the same substance, the figures for the Kd in test [2] and in test [3] were 83 nM and 540 nM, respectively.

For the origin of these results see US20260227407A1, “SYNTHETIC GLYCOPEPTIDES AND DERIVATIVES FOR THE EARLY-STAGE DETECTION OF CANCER BIOMARKERS IN MUC1-POSITIVE TUMORS” (FUNDACIÓN RIOJA SALUD, priority 2023, published 2026).
